Where a name gives a salt, the structure may show the parent alone.
Legend:
Format in all cases: physicochemical
[1] = Storage stability of crystalline idarubicin hydrochloride in drying chamber, content analysed by HPLC; conditions: for Purity of idarubicin hydrochloride: HPLC
Description: The crystalline idarubicin hydrochloride obtained in Example 1 was studied for its stability relative to storage at temperatures of 25° C. and 40° C. for various time periods. For this purpose, aliquots of the obtained crystalline idarubicin hydrochlorides were encapsulated individually. One half of the aliquots were stored in a drying chamber at 25° C., the other half were stored in a different drying chamber at 40° C. After the times specified below, individual samples were taken from the drying chambers and the content of idarubicin hydrochloride was analyzed by high performance liquid chromatography (HPLC).

[2] = Thermodynamic stability of the crystalline form versus amorphous form; conditions: compared with amorphous idarubicin hydrochloride
[3] = Storage of currently available idarubicin hydrochloride under typical storage conditions; conditions: hydrolysis of the sugar group, increase in 4-demethoxydaunomycinone

Stability for long storage ([1]; long storage under elevated temperatures)	Purity of idarubicin hydrochloride ([1]; storage at 25° C., 0 weeks)	Purity of idarubicin hydrochloride ([1]; storage at 25° C., 1 week)	Purity of idarubicin hydrochloride ([1]; storage at 25° C., 2 weeks)	Purity of idarubicin hydrochloride ([1]; storage at 25° C., 4 weeks)	Purity of idarubicin hydrochloride ([1]; storage at 25° C., 8 weeks)	Purity of idarubicin hydrochloride ([1]; storage at 25° C., 24 weeks)	Purity of idarubicin hydrochloride ([1]; storage at 40° C., 0 weeks)	Purity of idarubicin hydrochloride ([1]; storage at 40° C., 1 week)	Purity of idarubicin hydrochloride ([1]; storage at 40° C., 2 weeks)	Purity of idarubicin hydrochloride ([1]; storage at 40° C., 4 weeks)	Purity of idarubicin hydrochloride ([1]; storage at 40° C., 8 weeks)	Purity of idarubicin hydrochloride ([1]; storage at 40° C., 24 weeks)	Decomposition during storage [3]	SMILES	Thermodynamic stability [2]
extraordinarily high stability	99.95	99.90	99.87	99.93	99.84	99.91	99.95	99.87	99.87	99.92	99.83	99.91		CC(=O)[C@]1(O)Cc2c(O)c3c(c(O)c2[C@@H](O[C@H]2C[C@H](N)[C@H](O)[C@H](C)O2)C1)C(=O)c1ccccc1C3=O [crystalline idarubicin hydrochloride, idarubicin hydrochloride]	thermodynamically more stable than amorphous idarubicin hydrochloride
													steady decomposition	CC(=O)[C@]1(O)Cc2c(O)c3c(c(O)c2[C@@H](O[C@H]2C[C@H](N)[C@H](O)[C@H](C)O2)C1)C(=O)c1ccccc1C3=O [idarubicin hydrochloride]	
